Laboratory results as given in ChEMBL document CHEMBL4842327, “Cyclic mimetics of kinase-inhibitory region of Suppressors of Cytokine Signaling 1: Progress toward novel anti-inflammatory therapeutics” (Eur J Med Chem, 2021).
pKd: −log10 of the molar value. The source made the active and inactive calls. The rule behind the calls is not given here. Peptide text beside a SMILES is read from it. * marks the point of attachment. Acm = CC(=O)NC*

Experiments:
VSMC [1] = assay: Antioxidant activity in IFNgamma/IL6-stimulated mouse VSMC cells assessed as upregulation of Sod1 mRNA expression by quantitative real time PCR analysis; format: functional, cell-based
[2] = molecular target: Tyrosine-protein kinase JAK2 (Mus musculus) (UniProt Q62120); assay: Inhibition of JAK2 in mouse RAW264.7 cells assessed as reduction in IFNgamma/IL6-induced Ccl5 mRNA expression by quantitative real time PCR analysis; format: cell-based
Sequence of Tyrosine-protein kinase JAK2 (Mus musculus) (Q62120 whole entry, the tested form may be a part): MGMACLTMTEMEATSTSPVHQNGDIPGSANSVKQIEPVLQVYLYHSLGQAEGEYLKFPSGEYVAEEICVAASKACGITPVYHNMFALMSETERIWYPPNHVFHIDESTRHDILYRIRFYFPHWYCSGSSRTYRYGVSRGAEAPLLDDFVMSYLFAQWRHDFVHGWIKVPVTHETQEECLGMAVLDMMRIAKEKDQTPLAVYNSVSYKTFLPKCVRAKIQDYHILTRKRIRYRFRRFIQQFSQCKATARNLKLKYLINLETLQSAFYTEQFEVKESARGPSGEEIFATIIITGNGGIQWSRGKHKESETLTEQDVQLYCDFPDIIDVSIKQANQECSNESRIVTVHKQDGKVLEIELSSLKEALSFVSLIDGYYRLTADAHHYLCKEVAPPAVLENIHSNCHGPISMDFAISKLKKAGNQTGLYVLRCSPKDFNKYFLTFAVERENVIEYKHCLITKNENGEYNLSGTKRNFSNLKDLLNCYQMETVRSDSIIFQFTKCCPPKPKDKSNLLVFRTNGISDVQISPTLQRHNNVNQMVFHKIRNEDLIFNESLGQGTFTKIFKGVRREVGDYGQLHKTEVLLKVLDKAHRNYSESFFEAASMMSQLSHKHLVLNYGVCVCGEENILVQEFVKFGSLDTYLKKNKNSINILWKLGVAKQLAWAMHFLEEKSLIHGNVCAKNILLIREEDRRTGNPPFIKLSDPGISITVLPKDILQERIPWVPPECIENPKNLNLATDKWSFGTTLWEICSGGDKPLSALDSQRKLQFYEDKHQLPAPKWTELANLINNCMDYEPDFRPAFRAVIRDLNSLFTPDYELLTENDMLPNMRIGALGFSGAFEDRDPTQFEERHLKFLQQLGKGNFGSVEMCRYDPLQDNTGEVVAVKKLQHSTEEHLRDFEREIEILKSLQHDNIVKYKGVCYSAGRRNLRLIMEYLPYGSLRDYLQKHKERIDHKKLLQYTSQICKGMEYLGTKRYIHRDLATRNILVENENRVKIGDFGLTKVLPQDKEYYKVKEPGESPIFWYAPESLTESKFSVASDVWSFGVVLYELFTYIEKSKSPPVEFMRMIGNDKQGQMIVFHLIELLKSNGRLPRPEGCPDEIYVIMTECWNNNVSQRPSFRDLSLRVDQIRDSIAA

[3] = molecular target: Tyrosine-protein kinase JAK2 (Mus musculus) (UniProt Q62120); assay: Inhibition of JAK2 in mouse VSMC cells assessed as reduction in IFN-gamma/IL6 induced STAT1 nuclear translocation at 5 uM treated for 90 mins prior to cytokine stimulation and measured after 1 hr by DAPI staining based immunofluorescence confocal microscopy; format: cell-based; details: time 150.0 min
VSMC [4] = assay: Antioxidant activity in IFNgamma/IL6-stimulated mouse VSMC cells assessed as upregulation of catalase mRNA expression by quantitative real time PCR analysis; format: functional, cell-based
[5] = molecular target: Tyrosine-protein kinase JAK2 (Mus musculus) (UniProt Q62120); assay: Inhibition of JAK2 in mouse VSMC cells assessed as reduction in IFNgamma/IL6- induced STAT1 phosphorylation by Western blot analysis; format: cell-based
[6] = molecular target: Tyrosine-protein kinase JAK2 (Homo sapiens, UniProt O60674); assay: Binding affinity to N-terminal His-tagged human JAK2 catalytic domain (826 to 1132 residues) expressed in baculovirus-infected Sf21 cells by Microscale thermophoresis analysis
Sequence of Tyrosine-protein kinase JAK2 (O60674 whole entry, the tested form may be a part): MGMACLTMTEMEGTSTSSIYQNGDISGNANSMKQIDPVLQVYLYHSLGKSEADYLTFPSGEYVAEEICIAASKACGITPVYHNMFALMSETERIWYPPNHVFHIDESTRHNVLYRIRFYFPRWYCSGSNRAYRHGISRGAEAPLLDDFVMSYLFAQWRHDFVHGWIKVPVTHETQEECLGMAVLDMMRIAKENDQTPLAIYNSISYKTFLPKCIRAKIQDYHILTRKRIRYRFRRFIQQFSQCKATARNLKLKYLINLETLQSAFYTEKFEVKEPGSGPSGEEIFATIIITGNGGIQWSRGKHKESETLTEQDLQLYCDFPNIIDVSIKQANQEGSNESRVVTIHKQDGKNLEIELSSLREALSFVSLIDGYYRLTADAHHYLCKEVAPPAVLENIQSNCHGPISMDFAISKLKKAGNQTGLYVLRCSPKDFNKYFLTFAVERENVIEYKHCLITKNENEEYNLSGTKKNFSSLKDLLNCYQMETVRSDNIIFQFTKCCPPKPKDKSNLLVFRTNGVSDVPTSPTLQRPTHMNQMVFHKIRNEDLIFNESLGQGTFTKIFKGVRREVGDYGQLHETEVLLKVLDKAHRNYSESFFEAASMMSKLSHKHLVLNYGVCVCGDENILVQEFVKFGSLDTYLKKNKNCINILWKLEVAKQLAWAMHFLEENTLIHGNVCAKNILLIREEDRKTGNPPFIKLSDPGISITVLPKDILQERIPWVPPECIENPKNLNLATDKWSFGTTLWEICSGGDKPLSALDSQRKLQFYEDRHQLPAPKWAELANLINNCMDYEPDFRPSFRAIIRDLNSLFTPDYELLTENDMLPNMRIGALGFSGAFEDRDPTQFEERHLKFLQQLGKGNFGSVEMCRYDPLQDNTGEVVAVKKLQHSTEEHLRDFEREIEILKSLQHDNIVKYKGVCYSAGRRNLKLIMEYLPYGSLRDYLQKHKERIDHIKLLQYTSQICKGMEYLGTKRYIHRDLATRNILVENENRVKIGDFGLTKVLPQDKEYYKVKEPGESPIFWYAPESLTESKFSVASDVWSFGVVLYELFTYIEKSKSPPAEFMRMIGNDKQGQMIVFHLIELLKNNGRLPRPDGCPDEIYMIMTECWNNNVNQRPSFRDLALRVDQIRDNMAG

[7] = molecular target: Tyrosine-protein kinase JAK2 (Mus musculus) (UniProt Q62120); assay: Inhibition of JAK2 in mouse RAW264.7 cells assessed as reduction in IFNgamma/IL6-induced Ccl2 mRNA expression by quantitative real time PCR analysis; format: cell-based
RAW264.7 = assay: Antioxidant activity in mouse RAW264.7 cells assessed as reduction in IFNgamma/IL6-induced intracellular superoxide generation by DHE staining based fluorescence confocal microscopy analysis; format: functional, cell-based
VSMC [8] = assay: Antioxidant activity in IFNgamma/IL6-stimulated mouse VSMC cells assessed as reduction in Nox1 mRNA expression by quantitative real time PCR analysis; format: functional, cell-based
[9] = molecular target: Tyrosine-protein kinase JAK2 (Mus musculus) (UniProt Q62120); assay: Inhibition of JAK2 in mouse VSMC cells assessed as reduction in IFNgamma/IL6-induced Cxcl10 mRNA expression by quantitative real time PCR analysis; format: cell-based
[10] = molecular target: Tyrosine-protein kinase JAK2 (Mus musculus) (UniProt Q62120); assay: Inhibition of JAK2 in mouse VSMC cells assessed as reduction in IFNgamma/IL6-induced Ccl2 mRNA expression by quantitative real time PCR analysis; format: cell-based
[11] = molecular target: Tyrosine-protein kinase JAK2 (Mus musculus) (UniProt Q62120); assay: Inhibition of JAK2 in mouse VSMC cells assessed as reduction in IFNgamma/IL6 induced STAT1 phosphorylation at 5 uM treated for 90 mins prior to cytokine stimulation and measured after 1 hr by DAPI staining based immunofluorescence confocal microscopy; format: cell-based; details: time 150.0 min
VSMC [12] = assay: Antioxidant activity in mouse VSMC cells assessed as reduction in IFNgamma/IL6-induced intracellular superoxide generation by DHE staining based fluorescence confocal microscopy analysis; format: functional, cell-based
VSMC [13] = assay: Inhibition of IFN-gamma/IL6-induced cell migration in mouse VSMC cells incubated for 45 hrs by scratch wound healing assay; format: functional, cell-based
[14] = molecular target: Tyrosine-protein kinase JAK2 (Mus musculus) (UniProt Q62120); assay: Inhibition of JAK2 in mouse VSMC cells assessed as reduction in IFNgamma/IL6-induced Ccl5 mRNA expression by quantitative real time PCR analysis; format: cell-based
VSMC [15] = assay: Antioxidant activity in IFNgamma/IL6-stimulated mouse VSMC cells assessed as reduction in Nox4 mRNA expression by quantitative real time PCR analysis; format: functional, cell-based
[16] = molecular target: Tyrosine-protein kinase JAK2 (Mus musculus) (UniProt Q62120); assay: Inhibition of JAK2 in mouse RAW264.7 cells assessed as reduction in IFNgamma/IL6-induced Cxcl10 mRNA expression by quantitative real time PCR analysis; format: cell-based
[17] = molecular target: Tyrosine-protein kinase JAK2 (Mus musculus) (UniProt Q62120); assay: Inhibition of JAK2 in mouse VSMC cells assessed as reduction in IFNgamma/IL6-induced JAK2 phosphorylation by Western blot analysis; format: cell-based
[18] = Cytotoxicity against mouse VSMC cells assessed as reduction in cell viability at 25 uM incubated for 6 to 24 hrs in DMEM medium containing 0.5% FBS by MTT assay; format: cell-based; details: time 6-24 hrs
[19] = Cytotoxicity against mouse VSMC cells assessed as reduction in cell proliferation at 25 uM incubated for 24 hrs in DMEM medium containing 10% FBS by MTT assay; format: cell-based
[20] = Stability of the compound in 25% fetal calf serum assessed as enzyme-mediated compound degradation at 80 uM measured after 24 hrs by RP-HPLC analysis; format: ADME, cell-free, Bos taurus; details: cattle, read-out: Drug degradation
[21] = Stability of the compound in 25% fetal calf serum assessed as residual parent compound level at 80 uM measured after 42 hrs by RP-HPLC analysis; format: ADME, cell-free, Bos taurus; details: cattle, read-out: Stabilty

Row | SMILES | inhibition [2] | inhibition [3] [%] | inhibition [5] | pKd [6] | inhibition [7] | inhibition [9] | inhibition [10] | inhibition [11] [%] | inhibition [14] | inhibition [16] | inhibition [17] | metabolised at 24 h, 80 µM [20] [%] | Activity (VSMC [1]) | Activity (VSMC [4]) | Activity (RAW264.7) | Activity (VSMC [8]) | Activity (VSMC [12]) | Activity (VSMC [15]) | Activity [18] | Activity [19] | other results
1 | CC(=O)NCSC[C@@H]1NC(=O)[C@H]([C@@H](C)O)NC(=O)[C@H](NC(C)=O)CC(=O)NCCCC[C@@H](C(=O)NC(Cc2cnc[nH]2)C(N)=O)NC(=O)[C@@H](CCCNC(=N)N)NC(=O)[C@H](Cc2cccc3ccccc23)NC(=O)[C@H]([C@@H](C)O)NC(=O)[C@H](CCC(N)=O)NC(=O)[C@@H](CCCNC(=N)N)NC1=O (stereo not given in full) | Active | 65 | Active | 4.46 | Active | Active | Active | 65 | Active | Active | Active | – | Active | Active | Active | Active | Active | Active | – | – | inhibition (VSMC [13]): Active
2 | CC(=O)NCSC[C@@H]1NC(=O)[C@H]([C@@H](C)O)NC(=O)[C@@H](NC(C)=O)CC(=O)NCCCC[C@@H](C(=O)N[C@@H](Cc2cnc[nH]2)C(N)=O)NC(=O)[C@H](CCCNC(=N)N)NC(=O)[C@H](Cc2ccccc2)NC(=O)[C@H]([C@@H](C)O)NC(=O)[C@H](CCC(N)=O)NC(=O)[C@H](CCCNC(=N)N)NC1=O | – | – | – | – | – | – | – | – | – | – | – | 40 | – | – | – | – | – | – | Non-Toxic | Non-Toxic | –

More lines, main results first:

Row | inhibition [2] | inhibition [3] [%] | inhibition [5] | pKd [6] | inhibition [7] | inhibition [9] | inhibition [10] | inhibition [11] [%] | inhibition [14] | inhibition [16] | inhibition [17] | metabolised at 24 h, 80 µM [20] [%] | SMILES | Activity (VSMC [1]) | Activity (VSMC [4]) | Activity (RAW264.7) | Activity (VSMC [8]) | Activity (VSMC [12]) | Activity (VSMC [15]) | Activity [18] | Activity [19] | other results
3 | Active | – | Active | – | Active | Active | Active | – | Active | Active | Active | 50 | CC(=O)NCSC[C@H](NC(=O)[C@@H](NC(=O)[C@H](CC(=O)O)NC(C)=O)[C@@H](C)O)C(=O)N[C@@H](CCCNC(=N)N)C(=O)N[C@@H](CCC(N)=O)C(=O)N[C@H](C(=O)N[C@@H](Cc1ccccc1)C(=O)N[C@@H](CCCNC(=N)N)C(=O)N[C@@H](CO)C(=O)N[C@@H](Cc1cnc[nH]1)C(=O)O)[C@@H](C)O (Ac-DTC(Acm)RQTFRSH-OH) | Active | Active | Active | Active | Active | Active | Non-Toxic | Non-Toxic | –
4 | – | – | – | – | – | – | – | – | – | – | – | 20 | CC(=O)NCSC[C@@H]1NC(=O)[C@H]([C@@H](C)O)NC(=O)[C@@H](NC(C)=O)CC(=O)NCCCC[C@@H](C(=O)N[C@@H](Cc2cnc[nH]2)C(N)=O)NC(=O)[C@H](CCCNC(=N)N)NC(=O)[C@H](Cc2cccc3ccccc23)NC(=O)[C@H]([C@@H](C)O)NC(=O)[C@H](CCC(N)=O)NC(=O)[C@H](CCCNC(=N)N)NC1=O | – | – | – | – | – | – | Non-Toxic | Non-Toxic | remaining at 42 h, 80 µM [21]: 40%
5 | Active | 65 | Active | 4.36 | Active | Active | Active | 65 | Active | Active | Active | – | CC(=O)NCSC[C@@H]1NC(=O)[C@H]([C@@H](C)O)NC(=O)[C@@H](NC(C)=O)CC(=O)NCCCC[C@@H](C(=O)NC(Cc2cnc[nH]2)C(N)=O)NC(=O)[C@@H](CCCNC(=N)N)NC(=O)[C@H](Cc2ccccc2)NC(=O)[C@H]([C@@H](C)O)NC(=O)[C@H](CCC(N)=O)NC(=O)[C@@H](CCCNC(=N)N)NC1=O (stereo not given in full) | Active | Active | Active | Active | Active | Active | – | – | inhibition (VSMC [13]): Active
